Assay results reported in publication PMC3161871, “Heteroarylketones inhibit astroglial interleukin-6 expression via a STAT3/NF-κB signaling pathway” (Journal of Neuroinflammation, 2011).

Experiments:
STAT3/p65 complex = experiment: Co-immunoprecipitation of p65 and STAT3 in OSM-stimulated U343 cells; assay type: cell-based, human; conditions: 100 ng/ml OSM, 20 μM compound, 6 h
Description: Cell lysates from 4 × 10^6 U343 cells/sample were obtained as described above. From each sample 200 μg of total protein were immunoprecipitated with 2 μg rabbit anti-p65 antibody (Santa Cruz Biotechnology; Heidelberg, Germany) or A. dest. (control) overnight at 4°C. Immunoprecipitated samples were incubated with 20 μl Dynabeads Protein G (Thermo Fisher Scientific, Karlsruhe, Germany) for 1 h at 4°C. Beads were washed 3 times with 1 ml PBS. Preparation of samples for SDS-PAGE analysis was done by means of dilution with SDS-PAGE sample buffer (Invitrogen, Darmstadt, Germany), followed by denaturation at 90°C for 10 min. SDS-PAGE analysis were performed as described before.
Normally, STAT3 is activated by phosphorylation at tyrosine 705, which induces dimerization, nuclear translocation and DNA binding. In contrast to other transcription factors like NF-κB, Creb and c/EBPb, STAT3 can not bind directly to the IL-6 promoter, because there are no STAT3 binding elements present. It is known from literature that several forms of interactions and cross talks between NF-κB and STAT3 exist. For instance, recent studies have shown a physical interaction between STAT3 and NF-κB [42, 43]. The importance of pSTAT3^S727 for protein interactions are under discussion. However, there is no information so far on the role of pSTAT3^S727 for the interaction with NF-κB. […]

[1] = system: OSM-stimulated IL-6 secretion from U343 cells; experiment: OSM-induced IL-6 release from U343 glioma cells (IL-6 ELISA of conditioned medium); assay type: cell-based, human; conditions: 20 μM compound, vehicle-transfected U343 cells, OSM 6 h
[2] = system: LPS-induced IL-6 release in primary rat astrocytes; experiment: LPS-induced IL-6 release in primary rat astrocytes (ELISA); assay type: cell-based; conditions: 1 μg/ml LPS, 20 μM compound, 24 h
Description: According to Löffler, astrocyte-rich primary cell cultures were started with brains of newborn mice and rats and were maintained in Dulbecco's modified Eagle's medium (DMEM) for 33 days at 37°C in a humified atmosphere with 95% air/5% CO2.
Measurements of IL-6 in conditioned medium and murine plasma samples were done by means of human- or murine-specific IL-6 Cytoset kits (Invitrogen, Darmstadt, Germany) according to manufacturer's protocols.
Figure 5 Suppression of LPS-induced IL-6 release in primary murine astrocytes by selected HAK compounds. […] Astrocytes derived from newborn mice and rats were cultivated for 33 days followed by stimulation with 1 μg/ml LPS and treatment with compounds HAK-2 and HAK-5 (20 μM). After 24 hours conditioned media were analyzed with IL-6 specific ELISA. Data (mean ± SD) were obtained from experiments carried out in quadruplicate and statistical analysis was performed using the paired t test. Amount of IL-6 in LPS-treated control sample was set to 100%. ns, not significant; **p < 0.01; ***p < 0.001.
Primary murine astrocytes stimulated with 1 μg/ml LPS were co-treated with compounds HAK-2 and HAK-5 at a concentration of 20 μM each for 24 h. The observed effect of compounds HAK-2 and HAK-5 on LPS stimulation was similar to that of OSM-induced IL-6 expression in human U343 glioma cells (Figures 5A and 5B). […]

With `C[C@H](NC(=O)OCc1ccccc1)C(=O)N1CCC[C@H]1C(=O)c1nc2ccccc2s1` [HAK-2, Z-Ala-Pro-BTh] the “p65-mediated STAT3 co-immunoprecipitation” value (STAT3/p65 complex) was “clear reduction”, the “IL-6 levels (mRNA and released protein) in the PREP knock-down experiment” value [1] was “reduces IL-6 levels” and the “Reduction of LPS-induced IL-6 expression” value [2] was 50%.
